These results are taken from patent US8372807B2, “Methods of modulating uric acid levels” (Ardea Biosciences, Inc., priority 2009, dated 2013).

This assay concerns the target T1, hURAT1 transporter (URAT-1) (Homo sapiens, UniProt Q96S37).
T1 construct: Full-length human URAT1 gene (SLC22A12) was subcloned from plasmid pCMV6-XL5
T1 sequence (Q96S37 1-553): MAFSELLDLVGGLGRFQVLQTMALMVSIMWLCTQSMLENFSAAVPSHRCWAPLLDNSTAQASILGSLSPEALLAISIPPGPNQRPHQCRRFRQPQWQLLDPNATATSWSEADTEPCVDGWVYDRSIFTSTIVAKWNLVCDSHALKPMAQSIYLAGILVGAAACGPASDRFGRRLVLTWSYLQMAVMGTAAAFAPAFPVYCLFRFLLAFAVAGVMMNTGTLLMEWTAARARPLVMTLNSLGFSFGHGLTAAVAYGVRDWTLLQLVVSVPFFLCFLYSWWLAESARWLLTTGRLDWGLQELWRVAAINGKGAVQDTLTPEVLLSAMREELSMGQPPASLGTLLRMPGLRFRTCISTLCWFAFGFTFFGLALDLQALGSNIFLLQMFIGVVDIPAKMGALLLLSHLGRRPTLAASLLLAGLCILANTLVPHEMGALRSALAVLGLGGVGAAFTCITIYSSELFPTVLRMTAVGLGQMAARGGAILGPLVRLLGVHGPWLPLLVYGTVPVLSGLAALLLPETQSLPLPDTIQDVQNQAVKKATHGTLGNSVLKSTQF
Kind of assay: Uric Acid Uptake Assay (URAT-1 EC50). The settings on record: HEK293/urat1 cells, C14 uric acid uptake, 40 μM uric acid, 10 minutes at room temperature. The class given is cell-based. The source says:
Uric Acid Uptake Assay (URAT-1 EC50)
Creation of Stable Cell Lines Expressing hURAT1 Transporter: Full-length human URAT1 gene (SLC22A12) was subcloned from plasmid pCMV6-XL5 (Origene) into eukaryotic expression plasmid pCMV6/Neo (Origene) using Not I restriction sites. Gene sequencing confirmed the sequence of hURAT1 as outlined in Genbank (Accession #NM_144585.2). HEK293 human embryonic kidney cells (ATCC#CRL-1573) were propagated in EMEM tissue culture medium as described by ATCC in an atmosphere of 5% CO2 and 95% air. Transfections of HEK293 cells with the pCMV6/Neo/URAT1 construct were performed using L2000 transfection reagent (Invitrogen) as described by the manufacturer. After 24 h the transfected cells were split into 10 cm tissue culture plates and grown for 1 day after which the medium was replaced with fresh growth medium containing G418 (Gibco) at 0.5 mg/ml final concentration. Drug-resistant colonies were selected after approximately 8 days and then tested for ^14C-uric acid transport activity. The HEK293/urat1 cells are plated on Poly-D-Lysine Coated 96-well Plates at a density of 75,000 cells per well.
Cells were grown overnight (20-26 hours) at 37° C. in an incubator. Plates were allowed to come to room temperature and media was washed out with one wash of 250 μl of Wash Buffer (125 mM Na Gluconate, 10 mM Hepes pH 7.3). Compound or vehicle is added in assay buffer with C14 Uric Acid for a final concentration of 40 μM Uric Acid with a specific activity of 54 mCi/mmol Assay Buffer is 125 mM Sodium Gluconate, 4.8 mM Potassium Gluconate, 1.2 mM Potassium phosphate, monobasic, 1.2 mM magnesium sulfate, 1.3 mM Ca Gluconate, 5.6 mM Glucose, 25 mM HEPES, pH 7.3. Plates were incubated at room temperature for 10 minutes then washed 3 times with 50 μl Wash Buffer and 3 times with 250 μl Wash Buffer. Microscint 20 Scintillation Fluid was added and plates were incubated overnight at 45° C. to equilibrate. Plates are then read on the TopCount Plate Reader and an EC50 value generated. (See Enomoto et al, Nature, 2002, 417, 447-451 and Anzai et al, J. Biol. Chem., 2004, 279, 45942-45950.)
Compounds prepared as described above in examples 24-32, were examined according to the procedure described herein and EC50 values generated. The table below summarizes the activity of the compounds in the Uric Acid Uptake Assay, wherein
The compound `CCOC(=O)C(C)(C)Oc1n[nH]c(C)c1-c1cccc2ccccc12` [26 (step C), Ethyl 2-methyl-2-(5-methyl-4-(naphthalen-1-yl)-1H-pyrazol-3-yloxy)propanoate] yielded a 50% effective concentration (EC50) below 5 µM.
For the compound `Cc1[nH]nc(OC(C)(C)C(=O)O)c1-c1cccc2ccccc12` [26 (step D), 2-methyl-2-(5-methyl-4-(naphthalen-1-yl)-1H-pyrazol-3-yloxy)propanoic acid], the 50% effective concentration (EC50) was below 5 µM.
As for `CC(C)(Oc1ccnn1-c1cccc2ccccc12)C(=O)O` [Example 24, 2-Methyl-2-(1-(naphthalen-1-yl)-1H-pyrazol-5-yloxy)propanoic acid], the EC50 fell in the range of 5 to 20 µM.
The value for `CC(C)(Sc1ccnn1-c1cccc2ccccc12)C(=O)O` [Example 25, 2-Methyl-2-(1-(naphthalen-1-yl)-1H-pyrazol-5-ylthio)propanoic acid] was below 5 µM; that for `CC(C)(Sc1cnnn1-c1cccc2ccccc12)C(=O)O` [Example 28, 2-Methyl-2-(1-(naphthalen-1-yl)-1H-1,2,3-triazol-5-ylthio)propanoic acid] was below 5 µM.
For `CC(C)(Sc1nnnn1-c1cccc2ccccc12)C(=O)O` [Example 30, 2-Methyl-2-(1-(naphthalen-1-yl)-1H-tetrazol-5-ylthio)propanoic acid], the EC50 was below 5 µM.
`O=C(O)CSc1snnc1-c1cccc2ccccc12` [Example 32, 2-(4-(Naphthalen-1-yl)-1,2,3-thiadiazol-5-ylthio)acetic acid]: the EC50 lay in the range of 5 to 20 µM.
